# According to US5681832A, “Aroylaniline compounds, pharmaceutical compositions, and methods of using same to inhibit viral activity” (priority 1995, dated 1997):
# Structures can show the parent of a compound that is named as a salt. Where two headings read alike, the source gives them in different places.
# Assays:
# HIV-1 = test: in vitro anti-HIV screening (NCI XTT soluble-formazan assay, protection of HIV-1-infected CEM T4 lymphocytes from cytolysis); format: cell-based; conditions: for EC50: 144 h, HIV-1-infected CEM cells, 6 days, approximate values, read-out: EC50 (Molar), 50% effective concentration; for inhibition at 200 µM / activity at 200 µM: 2.00 × 10^-4 Molar; for inhibition at 20 µM / activity at 20 µM: 2.00 × 10^-5 Molar; for inhibition at 2 µM / activity at 2 µM: 2.00 × 10^-6 Molar; for inhibition at 0.2 µM / activity at 0.2 µM: 2.00 × 10^-7 Molar; for inhibition at 6.33 µM / activity at 6.33 µM: 6.33 × 10^-6 Molar; for inhibition at 0.634 µM / activity at 0.634 µM: 6.34 × 10^-7 Molar; for inhibition at 0.0635 µM / activity at 0.0635 µM: 6.35 × 10^-8 Molar; for TI50 (IC/EC), therapeutic index: IC50/EC50; for Conclusion: NCI anti-HIV screen
# Source text: The aroylaniline compounds of the present invention were subjected to in vitro screening to determine their anti-HIV activity.
# The National Cancer Institute's procedure for testing for agents active against Human Immunodeficiency Virus (HIV) (Weislow, O. W. et al., "New soluble-formazan assay for HIV-1 cytopathic effects: application to high-flux screening of synthetic and natural products for AIDS-antiviral activity," J. Natl Cancer Inst., 81, 577-586 (1989)) is designed to detect agents acting at any stage of the virus reproductive cycle. The assay includes the killing of T4 lymphocytes by HIV. Pursuant to the test, small amounts of HIV are added to cells, and a complete cycle of virus reproduction is necessary to obtain the required cell killing. Agents that interact with virions, cells, or virus gene-products to interfere with viral activities will protect cells from cytolysis. The system is thus designed to detect anti-HIV activity. However, compounds that are chemically labile or are rapidly metabolized in the culture conditions may not show activity in this screen. All tests are compared with at least one positive (e.g., AZT-treated) control done at the same time under identical conditions.
# (§1) 1. Candidate agent is dissolved in dimethyl sulfoxide (unless otherwise instructed) and then diluted 1:100 in cell culture medium before preparing serial half-log10 dilutions which are then to 96-well microfilter plates. T4 lymphocytes (CEM cell line) are added, and after a brief interval HIV-1 is added to all wells, resulting in a 1:200 final dilution […]. Uninfected cells with the compound serve as a toxicity control, and infected and uninfected cells without the compound serve as basic controls.
# (§2) 2. Cultures are incubated at 37° C. in a 5% carbon dioxide atmosphere for 6 days.
# (§3) 3. The tetrazolium salt, XTT, is added to all wells, and cultures are incubated to allow formazan color development by viable cells.
# (§4) 4. Individual wells are analyzed spectrophotometrically to quantitate formazan production, and in addition are viewed microscopically for detection of viable cells and confirmation of protective activity.
# (§5) 5. Drug-tested virus-infected cells are compared with drug-treated noninfected cells and with other appropriate controls (untreated infected and untreated noninfected cells, drug-containing wells without cells, etc.) on the same plate.
# 6. Data are reviewed in comparison with other tests done at the same time and a determination about activity is made.
# The aroylaniline compounds of the present invention were tested for anti-HIV activity according to the above procedure. FIGS. 1-6 represent test results of the aroylaniline compounds of Compounds 1, 3, 13, 14, 29 and 32.
# (§6) FIGS. 1 to 6 display a plot of the log10 of the concentrations (as μg/mL or molar as shown) of the aroylaniline compounds, Compounds 1, 3, 13, 14, 29 and 32, against the measured test values expressed as a percentage of the uninfected, untreated control values. The solid line depicts the percentage of surviving HIV-infected cells treated with sample (at the indicated concentration) relative to uninfected, untreated controls. Thus, the solid line expresses the anti-HIV activity of the compound. The dashed line depicts the percentage of surviving uninfected cells treated with the compound relative to the same uninfected, untreated controls. Thus, the dashed line expresses the growth inhibitory properties of the compound. The viral cytopathic effect […] is indicated by a dotted reference line. […] Survival values of this parameter less than 50% are considered acceptable in the current protocol. Approximate values for 50% effective concentration (EC50) have been calculated for each test and are set forth for these Compounds in Tables 2-7, respectively.
# [1] = test system: T4 lymphocytes (CEM cell line); test: toxicity control: survival of uninfected T4 lymphocytes (CEM cell line) treated with compound (growth inhibition); format: cell-based; conditions: Homo sapiens, CCRF-CEM; for IC50: 144 h, read-out: IC50 (Molar)
# Procedure: as §1, §2, §3, §4, §5, §6
# [2] = Human immunodeficiency virus 1, CCRF-CEM
# [3] = Human immunodeficiency virus 1, CCRF-CEM, read-out: Percent of Protection
# [4] = Human immunodeficiency virus 1, CEM-T4, read-out: Percent of Control, Infected
# [5] = read-out: Percent of Control, Uninfected
smiles,measurement,setting,value
"O=C(Nc1ccc(C=Cc2ccc(NC(=O)c3cc(S(=O)(=O)O)c4cccnc4c3O)cc2S(=O)(=O)O)c(S(=O)(=O)O)c1)c1cc(S(=O)(=O)O)c2cccnc2c1O [Compound 1, 4,4'-di(8-hydroxy-5-sulfo-7-quinolinecarboxyamido)stilbene-2,2'disulfonic acid tetrasodium salt]",EC50,HIV-1; [2],1.44 µM
same,inhibition at 200 µM,HIV-1; [3],-26%
same,inhibition at 20 µM,HIV-1; [3],107%
same,inhibition at 2 µM,HIV-1; [3],68.6%
same,inhibition at 0.2 µM,HIV-1; [3],5.09%
same,inhibition at 63.2 µM,"HIV-1; Human immunodeficiency virus 1, CCRF-CEM, 6.32 × 10^-5 Molar, read-out: Percent of Protection",85.6%
same,inhibition at 6.33 µM,HIV-1; [3],121%
same,inhibition at 0.634 µM,HIV-1; [3],3.41%
same,inhibition at 0.0635 µM,HIV-1; [3],-5.09%
same,activity at 200 µM,HIV-1; [4],4.26%
same,activity at 20 µM,HIV-1; [4],105%
same,activity at 2 µM,HIV-1; [4],76.2%
same,activity at 0.2 µM,HIV-1; [4],27.9%
same,activity at 63.2 µM,"HIV-1; Human immunodeficiency virus 1, CEM-T4, 6.32 × 10^-5 Molar, read-out: Percent of Control, Infected",89.1%
same,activity at 6.33 µM,HIV-1; [4],116%
same,activity at 0.634 µM,HIV-1; [4],26.6%
same,activity at 0.0635 µM,HIV-1; [4],20.1%
same,"TI50 (IC/EC), therapeutic index",HIV-1,8.28 × 10^+1
same,Conclusion,HIV-1,CONFIRMED ACTIVE
same,IC50,"[1]; uninfected CEM cells, 6 days",120 µM
same,activity at 200 µM,"[1]; 2.00 × 10^-4 Molar, read-out: Percent of Control, Uninfected",6.47%
same,activity at 20 µM,"[1]; 2.00 × 10^-5 Molar, read-out: Percent of Control, Uninfected",109%
same,activity at 2 µM,"[1]; 2.00 × 10^-6 Molar, read-out: Percent of Control, Uninfected",106%
same,activity at 0.2 µM,"[1]; 2.00 × 10^-7 Molar, read-out: Percent of Control, Uninfected",102%
same,activity at 63.2 µM,"[1]; 6.32 × 10^-5 Molar, read-out: Percent of Control, Uninfected",104%
same,activity at 6.33 µM,"[1]; 6.33 × 10^-6 Molar, read-out: Percent of Control, Uninfected",117%
same,activity at 0.634 µM,"[1]; 6.34 × 10^-7 Molar, read-out: Percent of Control, Uninfected",105%
same,activity at 0.0635 µM,"[1]; 6.35 × 10^-8 Molar, read-out: Percent of Control, Uninfected",97.6%
"O=C(Nc1ccc(/C=C/c2ccc(NC(=O)c3cc(S(=O)(=O)O)c4cccnc4c3O)cc2S(=O)(=O)O)c(S(=O)(=O)O)c1)Nc1ccc(/C=C/c2ccc(NC(=O)c3cc(S(=O)(=O)O)c4cccnc4c3O)cc2S(=O)(=O)O)c(S(=O)(=O)O)c1 [Compound 3, 1,3-di[2,2'-disulfo-4(8-hydroxy-5-sulfo-7-quinoline)]stilbene urea, hexasodium salt]",EC50,HIV-1; [2],4.06 µM
same,inhibition at 15.8 µM,"HIV-1; Human immunodeficiency virus 1, CCRF-CEM, 1.58 × 10^-5 Molar, read-out: Percent of Protection",92.9%
same,inhibition at 1.58 µM,"HIV-1; Human immunodeficiency virus 1, CCRF-CEM, 1.58 × 10^-6 Molar, read-out: Percent of Protection",0.19%
same,inhibition at 0.158 µM,"HIV-1; Human immunodeficiency virus 1, CCRF-CEM, 1.58 × 10^-7 Molar, read-out: Percent of Protection",-1.29%
same,inhibition at 0.0158 µM,"HIV-1; Human immunodeficiency virus 1, CCRF-CEM, 1.58 × 10^-8 Molar, read-out: Percent of Protection",0.19%
same,inhibition at 50 µM,"HIV-1; Human immunodeficiency virus 1, CCRF-CEM, 5.00 × 10^-5 Molar, read-out: Percent of Protection",90.8%
same,inhibition at 5 µM,"HIV-1; Human immunodeficiency virus 1, CCRF-CEM, 5.00 × 10^-6 Molar, read-out: Percent of Protection",61.1%
same,inhibition at 0.501 µM,"HIV-1; Human immunodeficiency virus 1, CCRF-CEM, 5.01 × 10^-7 Molar, read-out: Percent of Protection",2%
same,inhibition at 0.0502 µM,"HIV-1; Human immunodeficiency virus 1, CCRF-CEM, 5.02 × 10^-8 Molar, read-out: Percent of Protection",0.51%
same,activity at 15.8 µM,"HIV-1; Human immunodeficiency virus 1, CEM-T4, 1.58 × 10^-5 Molar, read-out: Percent of Control, Infected",93.2%
same,activity at 1.58 µM,"HIV-1; Human immunodeficiency virus 1, CEM-T4, 1.58 × 10^-6 Molar, read-out: Percent of Control, Infected",4.18%
same,activity at 0.158 µM,"HIV-1; Human immunodeficiency virus 1, CEM-T4, 1.58 × 10^-7 Molar, read-out: Percent of Control, Infected",2.76%
same,activity at 0.0158 µM,"HIV-1; Human immunodeficiency virus 1, CEM-T4, 1.58 × 10^-8 Molar, read-out: Percent of Control, Infected",4.18%
same,activity at 50 µM,"HIV-1; Human immunodeficiency virus 1, CEM-T4, 5.00 × 10^-5 Molar, read-out: Percent of Control, Infected",91.1%
same,activity at 5 µM,"HIV-1; Human immunodeficiency virus 1, CEM-T4, 5.00 × 10^-6 Molar, read-out: Percent of Control, Infected",62.7%
same,activity at 0.501 µM,"HIV-1; Human immunodeficiency virus 1, CEM-T4, 5.01 × 10^-7 Molar, read-out: Percent of Control, Infected",5.92%
same,activity at 0.0502 µM,"HIV-1; Human immunodeficiency virus 1, CEM-T4, 5.02 × 10^-8 Molar, read-out: Percent of Control, Infected",4.49%
same,"TI50 (IC/EC), therapeutic index",HIV-1,> 1.23 × 10^+1
same,Conclusion,HIV-1,CONFIRMED ACTIVE
same,IC50,"[1]; uninfected CEM cells, 6 days",> 50 µM
same,activity at 15.8 µM,"[1]; 1.58 × 10^-5 Molar, read-out: Percent of Control, Uninfected",103%
same,activity at 1.58 µM,"[1]; 1.58 × 10^-6 Molar, read-out: Percent of Control, Uninfected",95.7%
same,activity at 0.158 µM,"[1]; 1.58 × 10^-7 Molar, read-out: Percent of Control, Uninfected",94.4%
same,activity at 0.0158 µM,"[1]; 1.58 × 10^-8 Molar, read-out: Percent of Control, Uninfected",111%
same,activity at 50 µM,"[1]; 5.00 × 10^-5 Molar, read-out: Percent of Control, Uninfected",98%
same,activity at 5 µM,"[1]; 5.00 × 10^-6 Molar, read-out: Percent of Control, Uninfected",97%
same,activity at 0.501 µM,"[1]; 5.01 × 10^-7 Molar, read-out: Percent of Control, Uninfected",97.7%
same,activity at 0.0502 µM,"[1]; 5.02 × 10^-8 Molar, read-out: Percent of Control, Uninfected",95.8%
"O=C(O)CCSCc1cc(C(=O)Nc2ccc(C=Cc3ccc(NC(=O)c4cc(CSCCC(=O)O)c5cccnc5c4O)cc3S(=O)(=O)O)c(S(=O)(=O)O)c2)c(O)c2ncccc12 [Compound 13, 4,4'-di[5-(2-carboxyethylthiomethyl)-8-hydroxy-7-quinolinecarboxyamido]stilbene-2,2'-disulfonic acid tetrasodium salt]",EC50,HIV-1; [2],1.05 µM
same,inhibition at 63.2 µM,HIV-1; [3],29.4%
same,inhibition at 200 µM,HIV-1; [3],-28%
same,inhibition at 20 µM,HIV-1; [3],67.5%
same,inhibition at 2 µM,HIV-1; [3],84.4%
same,inhibition at 0.2 µM,HIV-1; [3],-17.9%
same,inhibition at 6.33 µM,HIV-1; [3],134%
same,inhibition at 0.634 µM,HIV-1; [3],24.6%
same,inhibition at 0.0635 µM,HIV-1; [3],15.6%
same,activity at 63.2 µM,HIV-1; [4],1.63%
same,activity at 200 µM,HIV-1; [4],2.7%
same,activity at 20 µM,HIV-1; [4],75.3%
same,activity at 2 µM,HIV-1; [4],88.1%
same,activity at 0.2 µM,HIV-1; [4],10.4%
same,activity at 6.33 µM,HIV-1; [4],126%
same,activity at 0.634 µM,HIV-1; [4],42.7%
same,activity at 0.0635 µM,HIV-1; [4],35.8%
same,"TI50 (IC/EC), therapeutic index",HIV-1,2.78 × 10^+1
same,Conclusion,HIV-1,CONFIRMED ACTIVE
same,IC50,[1],29 µM
same,activity at 0.0635 µM,[1]; [5],86.4%
same,activity at 0.2 µM,[1]; [5],90.5%
same,activity at 0.634 µM,[1]; [5],92.2%
same,activity at 2 µM,[1]; [5],111%
same,activity at 6.33 µM,[1]; [5],118%
same,activity at 20 µM,[1]; [5],73.7%
same,activity at 63.2 µM,[1]; [5],0.37%
same,activity at 200 µM,[1]; [5],2.05%
